Results as given in ChEMBL document CHEMBL4130433, “Acridone-pyrimidine hybrids- design, synthesis, cytotoxicity studies in resistant and sensitive cancer cells and molecular docking studies” (Eur J Med Chem, 2017).

Tests used:
K562 = test: Cytotoxicity against human K562 cells by MTT assay; assay type: functional, cell-based
MDA-MB-231 [1] = test: Antiproliferative activity against human MDA-MB-231 cells after 72 hrs by MTT assay; assay type: functional, cell-based; conditions: MDA-MB-231, 72 h
HeLa = test: Antiproliferative activity against human HeLa cells after 72 hrs by MTT assay; assay type: functional, cell-based
MCF7 [2] = test: Antiproliferative activity against human MCF7 cells after 72 hrs by MTT assay; assay type: functional, cell-based; conditions: MCF7, 72 h
[3] = Cytotoxicity against African green monkey Vero cells after 72 hrs by MTT assay; assay type: cell-based; conditions: chlorocebus sabaeus
[4] = molecular target: RAC-alpha serine/threonine-protein kinase (Homo sapiens, UniProt P31749); test: Inhibition of PH domain lacking AKT1 (unknown origin) using Tamara-labeled GRPRTSSFAEG peptide as substrate after 90 mins by fluorescence polarization IMAP assay
Sequence of RAC-alpha serine/threonine-protein kinase (P31749 whole entry, the tested form may be a part): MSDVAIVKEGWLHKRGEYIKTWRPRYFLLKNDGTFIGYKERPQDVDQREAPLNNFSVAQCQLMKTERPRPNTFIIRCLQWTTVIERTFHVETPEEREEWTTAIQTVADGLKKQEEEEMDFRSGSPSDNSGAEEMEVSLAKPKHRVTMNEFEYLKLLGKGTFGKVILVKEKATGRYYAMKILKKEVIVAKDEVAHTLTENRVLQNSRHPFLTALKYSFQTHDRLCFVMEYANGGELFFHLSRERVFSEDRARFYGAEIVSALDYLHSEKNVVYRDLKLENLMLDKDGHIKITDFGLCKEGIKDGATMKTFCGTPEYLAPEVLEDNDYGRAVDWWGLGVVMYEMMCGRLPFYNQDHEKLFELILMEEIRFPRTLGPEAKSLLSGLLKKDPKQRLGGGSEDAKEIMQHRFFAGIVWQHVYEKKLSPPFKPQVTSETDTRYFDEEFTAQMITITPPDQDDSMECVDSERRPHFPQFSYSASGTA

A549 = test: cells; conditions: Homo sapiens, A549, 72 h
Description: Antiproliferative activity against human A549 cells after 72 hrs by MTT assay

MDA-MB-231 [5] = test: Effect on total AKT protein expression in human MDA-MB-231 cells at antiproliferative IC50 after 48 hrs by Western blot method; assay type: cell-based; conditions: mda-mb-231, 48 h
MCF7 [6] = test: Cytotoxicity against human MCF7 cells by MTT assay; assay type: functional, cell-based
2008 [7] = test: Antiproliferative activity against human 2008 cells after 72 hrs by MTT assay; assay type: functional, cell-based; conditions: Homo sapiens, 2008, 72 h
2008 [8] = test: Antiproliferative activity against resistant human 2008 cells clone 4 harboring MRP1 after 72 hrs by MTT assay; assay type: functional, cell-based; conditions: Homo sapiens, 2008, 72 h
2008 [9] = test: Antiproliferative activity against resistant human 2008 cells clone 6 harboring MRP1 after 72 hrs by MTT assay; assay type: functional, cell-based; conditions: Homo sapiens, 2008, 72 h
SW1573 [10] = test: Antiproliferative activity against human SW1573 cells after 72 hrs by MTT assay; assay type: functional, cell-based; conditions: SW1573, 72 h
SW1573 [11] = test: Antiproliferative activity against resistant human SW1573 2R 120 cells harboring MRP1 after 72 hrs by MTT assay; assay type: functional, cell-based; conditions: SW1573, 72 h
SW1573 [12] = test: Antiproliferative activity against resistant human SW1573 2R 160 cells harboring P-gp after 72 hrs by MTT assay; assay type: functional, cell-based; conditions: SW1573, 72 h
[13] = Antiproliferative activity against human MCF7/MX cells after 72 hrs by MTT assay; assay type: functional, cell-based
[14] = Antiproliferative activity against human MCF7/DX cells after 72 hrs by MTT assay; assay type: functional, cell-based

IC50 (MDA-MB-231 [1]) [µM] | IC50 (HeLa) [µM] | IC50 (MCF7 [2]) [µM] | IC50 [4] [nM] | IC50 (A549) [µM] | IC50 (SW1573 [10]) [µM] | IC50 (SW1573 [11]) [µM] | IC50 (SW1573 [12]) [µM] | Structure (SMILES) | IC50 (K562) [nM] | CC50 at 72 h [3] [µM] | Activity (MDA-MB-231 [5]) | IC50 (MCF7 [6]) [µM] | IC50 2008 [7] [µM] | IC50 2008 [8] [µM] | IC50 2008 [9] [µM] | IC50 [13] [µM] | IC50 [14] [µM]
 |  |  |  |  |  |  |  | Cc1cccc2c(=O)c3c(NCc4ccccc4)ccc(C(=O)NCCN(C)C)c3[nH]c12 | 460 |  |  |  |  |  |  |  | 
> 100 | 47.1 | > 100 | 176 | > 100 |  |  |  | CCOC(=O)c1c(C)nc(NNC(=O)c2cccc3c(=O)c4ccccc4[nH]c23)nc1-c1ccc(F)cc1 |  | 58.2 |  |  |  |  |  |  | 
6.28 | 52.6 | 7.3 | 8.2 | 3.12 |  |  |  | CCOC(=O)c1c(C)nc(NNC(=O)c2cccc3c(=O)c4ccccc4[nH]c23)nc1-c1ccccc1F |  | 61.3 | Non-Toxic |  |  |  |  |  | 
5.6 | 48.5 | 11.4 | 980 | 9.74 |  |  |  | CCOC(=O)c1c(C)nc(NNC(=O)c2cccc3c(=O)c4ccccc4[nH]c23)nc1-c1ccc(C)cc1 |  | 72.3 |  |  |  |  |  |  | 
74.5 | 37.4 | 52.1 | 640 | 44.8 |  |  |  | COC(=O)c1c(C)nc(NNC(=O)c2cccc3c(=O)c4ccccc4[nH]c23)nc1-c1ccc(OC)cc1 |  | 86.2 |  |  |  |  |  |  | 
> 100 | > 100 | > 100 | 251 | > 100 |  |  |  | CCOC(=O)c1c(C)nc(NNC(=O)c2cccc3c(=O)c4ccccc4[nH]c23)nc1-c1cccc(OC)c1 |  | 64.1 |  |  |  |  |  |  | 
19.6 | 45.8 | 15.6 | 4.7 | 8.49 |  |  |  | CCOC(=O)c1c(C)nc(NNC(=O)c2cccc3c(=O)c4ccccc4[nH]c23)nc1-c1ccccc1 |  | 92.8 | Non-Toxic |  |  |  |  |  | 
41.6 | 67.3 | 25.7 | 432 | 20.6 |  |  |  | COC(=O)c1c(C)nc(NNC(=O)c2cccc3c(=O)c4ccccc4[nH]c23)nc1-c1ccccc1F |  | 76.1 |  |  |  |  |  |  | 
 |  |  |  |  |  |  |  | COc1ccc(Cn2cc(Cn3c4ccccc4c(=O)c4cc(OC)ccc43)nn2)cc1 |  |  |  | 11 |  |  |  |  | 
56.2 | 44.5 | 33 | 313 | 36.5 | 75 | > 100 | 62 | COC(=O)c1c(C)nc(NNC(=O)c2cccc3c(=O)c4ccccc4[nH]c23)nc1-c1ccc(F)cc1 |  | 78.2 |  |  | 23 | 24 | 27 | 30 | 45
7.12 | 74.5 | 10.5 | 1.72 | 3.26 |  |  |  | CCOC(=O)c1c(C)nc(NNC(=O)c2cccc3c(=O)c4ccccc4[nH]c23)nc1-c1ccc(OC)cc1 |  | 82.3 | Non-Toxic |  |  |  |  |  | 
58.3 | 72.6 | 32 | 482 | 27.2 | 5 | > 100 | 10 | COC(=O)c1c(C)nc(NNC(=O)c2cccc3c(=O)c4ccccc4[nH]c23)nc1-c1cccc(OC)c1 |  | 95.1 |  |  | 34 | 74 | 72 | 30 | 78
47.3 | 57.5 | 26 | 115 | 41.7 | 45 | 38 | 62 | CCOC(=O)c1c(C)nc(NNC(=O)c2cccc3c(=O)c4ccccc4[nH]c23)nc1-c1ccc(OC)c(OC)c1 |  | 84.3 |  |  | 15 | 25 | 19 | 38 | 30
47.4 | 56.7 | 36.2 | 56 | 20.4 |  |  |  | COC(=O)c1c(C)nc(NNC(=O)c2cccc3c(=O)c4ccccc4[nH]c23)nc1-c1ccccc1 |  | 80 |  |  |  |  |  |  | 
8.61 | 39.1 | 4.32 | 12 | 3.9 |  |  |  | CCOC(=O)c1c(C)nc(NNC(=O)c2cccc3c(=O)c4ccccc4[nH]c23)nc1CC(C)C |  | 78.2 | Non-Toxic |  |  |  |  |  | 
23.7 | 76.4 | 45.2 | 738 | 40.5 |  |  |  | COC(=O)c1c(C)nc(NNC(=O)c2cccc3c(=O)c4ccccc4[nH]c23)nc1-c1ccc(C)cc1 |  | 64.2 |  |  |  |  |  |  | 
 |  |  |  | 10.2 |  |  |  | COc1cccc2c1C(=O)c1c(O)c3c(c(O)c1C2=O)C[C@@](O)(C(=O)CO)C[C@@H]3O[C@H]1C[C@H](N)[C@H](O)[C@H](C)O1 [DOXORUBICIN] |  |  | Non-Toxic |  |  |  |  |  | 
 |  |  |  | 21.3 |  |  |  | C#Cc1cccc(Nc2ncnc3cc(OCCOC)c(OCCOC)cc23)c1 [ERLOTINIB] |  |  |  |  |  |  |  |  | 
